Results on one molecule are retold here after patent US9290455B2, “CDDO-Me amino acid conjugates and methods of use” (Trustees of Dartmouth College, priority 2014, dated 2016).

The test system of this experiment is reactive oxygen species. The experiment in a line: Reactive oxygen species in tBHP-challenged RAW cells (H2DCFA, flow cytometry). In kind it is cell-based. As to conditions: 100 nM for 18 hours, 250 μM tBHP for 15 minutes. Here is the method:
RAW264.7 cells were incubated with 10 and 100 nM of the synthetic triterpenoids for 18 hours, H2DCFA was then added for 30 minutes and the cells were challenged with 250 μM of tert-butyl hydroperoxide for 15 minutes to induce ROS. Mean fluorescence intensity of 50,000 cells was detected by flow cytometry. The results were obtained from three independent experiments.
The antioxidative activity of these compounds was explored as well. This experiment was based on the deacetylation and then oxidation of the non-fluorescent reagent 2′,7′-dichlorodihydrofluorescein diacetate (H2DCFA) to a fluorescent derivative. To study the effects of the TPs on oxidative stress, RAW cells were treated with 10-100 nM of the TPs for 18 hours. Cells were then incubated with 10 μM H2DCFA for […] and challenged with 250 μM of tert-butyl hydroperoxide (tBHP) for 15 minutes. The mean fluorescence intensity was measured by flow cytometry, using a 480 nm excitation wavelength and a 525 nm emission wavelength.
On the technique in general: A flow cytometer gives signals particle by particle.

The structures appear in SMILES notation.

On to `COC(=O)[C@]12CCC(C)(C)C[C@H]1[C@H]1C(=O)C=C3[C@@]4(C)C=C(C#N)C(=O)C(C)(C)[C@@H]4CC[C@@]3(C)[C@]1(C)CC2` [CDDO-Me, bardoxolone methyl], for which the “protection against ROS at 100 nM compared with 10 nM” value is reported as “slightly better”.
